One data set is described as follows: Solubility in water. Format: physicochemical.
The nature of data set [1]: Quantification of sphingosine on the coated surface by mass spectrometry. The conditions noted are these: mass spectrometry (FIG. 18A). Type of data set: physicochemical. As for the experimental part: Coated plastic surfaces were extracted by a one-step lipid extraction. Briefly, a plastic piece was transferred into a siliconized glass tube and adsorbed sphingosine was extracted by addition of 10 mL methanol and sonification on ice for 1 hour. After centrifugation, the lipid extract was diluted with methanol and 50 pmol of C17-sphingosine was added as internal standard. […] Ion funnel parameters were: high pressure RF voltage 110 V and low pressure RF voltage 60 V. Multiple reaction monitoring (MRM) transition 300.3 m/z>282.3 m z at 8 eV collision energy was used for quantification of sphingosine, whereas MRM transition 286.3 m/z>268.3 m/z at 8 eV collision energy was used for quantification of C17-sphingosine. Quantification was performed with Mass Hunter Software (Agilent Technologies).
To determine the total amount of sphingosine present on the surface of the endotracheal tubes after dip coating, we performed mass spectrometry (FIG. 18A) and a sphingosine kinase radioactivity assay (FIG. 18B). […] Sphingosine was either extracted and analyzed by mass spectrometry (FIG. 18A) or sphingosine kinase assay (FIG. 18B). The amount of sphingosine calculated on the surface after dip coating is (A) 131 nmol/cm^2 and (B) 152.5 nmol/cm^2, respectively.

For data set [2] the following is noted: inhalation, cited from earlier work.
Data set [3] in a line: Quantification of sphingosine on the coated surface by sphingosine kinase assay. Format: physicochemical. The following applies: sphingosine kinase assay (FIG. 18B). How it is done: Plastic pieces were extracted in CHCl3/CH3OH/1N HCl (100:100:1, v/v/v), the lower phase was dried and resuspended in a detergent solution (7.5% [w/v] n-octyl glucopyranoside, 5 mM cardiolipin in 1 mM diethylenetriaminepentaacetic acid (DTPA)). The kinase reaction was initiated by addition of 0.004 units sphingosine kinase in 50 mM HEPES (pH 7.4), 250 mM NaCl, 30 mM MgCl2 1 μM ATP and 5 μCi [^32P]γATP. Samples were incubated for 60 min at 37° C. with shaking (350 rpm), then extracted in 20 μl 1N HCl, 800 μl CHCl3/CH3OH/1N HCl (100:200:1, v/v/v), 240 μl CHCl3 and 2 M KCl. The lower phase was collected, dried, dissolved in 20 μL of CHCl3:CH3OH (1:1, v/v) and separated on Silica G60 thin layer chromatography (TLC) plates using CHCl3/CH3OH/acetic acid/H2O (90:90:15:5, v/v/v/v) for SPH. The TLC plates were analyzed using a phosphoimager.
To determine the total amount of sphingosine present on the surface of the endotracheal tubes after dip coating, we performed mass spectrometry (FIG. 18A) and a sphingosine kinase radioactivity assay (FIG. 18B). Both methods confirmed a concentration of sphingosine in the nmol to μmol range per cm^2. […] Sphingosine was either extracted and analyzed by mass spectrometry (FIG. 18A) or sphingosine kinase assay (FIG. 18B). The amount of sphingosine calculated on the surface after dip coating is (A) 131 nmol/cm^2 and (B) 152.5 nmol/cm^2, respectively.

`CCCCCCCCCCCCCC[C@@H](O)[C@@H](O)[C@@H](N)CO` [phytosphingosine, D-ribo-phytosphingosine]: the solubility in water entry in the data set “Solubility in water” is reported as “nearly completely insoluble in water”.

Consider `CCCCCCCCCCCCC/C=C/[C@@H](O)[C@@H](N)CO` [sphingosine, D-erythrosphingosine (d18:1)], for which the solubility in water result in the data set “Solubility in water” is “nearly completely insoluble in water”. Besides, the “amount of sphingosine calculated on the surface after dip coating” value is reported as 131 nmol/cm^2 in data set [1] and 152.5 nmol/cm^2 in data set [3]. Further, the observable toxicity result in data set [2] (mice) is on record as “did not result in any observable toxicity”. In addition, in data set [2] (susceptible mice), the rates of pneumonia entry is “reduce rates of pneumonia in susceptible mice”.

The values are drawn from patent US12186457B2, “Sphingolipid coatings and process for manufacturing sphingolipid coatings effective for inhibiting biofilm formation” (UNIVERSITY OF CINCINNATI, priority 2015, dated 2025).
